Consider five compounds from patent publication US10829523B2, “Anti-tumor peptides and use thereof” (TOAGOSEI CO., LTD., priority 2017, dated 2020).

Common to all, as to settings: 5 h incubation, n=3 average
Assay [1] deals with mammary cancer cell line (MDA-MB-231). In words: Anti-tumor activity test, cell survival rate (WST-8). In kind it is cell-based, human. How it is done:
(§1) For any one of each sample peptide synthesized in the above Test Example 1, an anti-tumor activity was evaluated by having various kinds of cultured tumor cells as a subject.
(§2) Specifically, as a tumor cell for test, cultured mammary cancer cell line (MCF-7), cultured mammary cancer cell line (MDA-MB-231), cultured pancreatic cancer cell line (MIA PaCa-2), cultured prostate cancer cell line (PC-3), and cultured prostate cancer cell line (DU-145), which are currently available on the market, were used. Furthermore, as a subject for comparison, commercially available cultured cell line of normal human mammary epithelial cells was used. Details of the test are described below.
(§3) Namely, those cell lines were cultured in advance in DMEM medium (that is, Dulbecco's MEM medium (DMEM medium: product of Gibco) containing 10% fetal bovine serum (FBS: product of Gibco), 2 mM L-glutamine, 50 unit/mL penicillin, and 50 μg/mL of streptomycin), and adjusted such that the number of cells per well of a 96-hole (well) plate is about 1×10^4. The medium amount was 100 μL per well.
(§4) Subsequently, the 96-hole (well) plate was kept in a CO2 incubator and pre-incubation was carried out for about 1 day (22 hours to 23 hours) at conditions of 37° C., 5% CO2.
(§5) After that, a test medium containing the peptide at each concentration was prepared such that the peptide concentration in any sample to be an evaluation subject is any one of 3.13 μM, 6.25 μM, 12.5 μM, 25 μM, 50 μM, and 100 μM. Then, the test medium was supplied, in an amount of 90 μL per well, to a well in which the cells as an evaluation subject have been cultured (that is, well after the above pre-incubation). In addition, the 96-hole (well) plate was returned to the CO2 incubator and incubated for 5 hours at conditions of 37° C., 5% CO2.
(§6) Furthermore, number (n) of the test wells for the test group added with each peptide at each peptide concentration was all set at 3. Thus, the result values shown in the following table correspond to an average value of the results which have been obtained from each of test well number of 3. Cell survival rate (%) was determined as described below.
(§7) Upon completion of the incubation for 5 hours described above, the medium in each well was replaced with 100 μL of fresh medium not containing the peptide. Furthermore, “Cell Counting Kit-8” (product of Dojindo Laboratories) containing as a chromogenic reagent “Aqueous tetrazolium salt (WST-8)”, which is a reagent for measuring cell proliferation, was added in an amount of 10 μL to each well. After that, the 96-hole (well) plate was returned to the CO2 incubator and incubated for 1.5 hours at conditions of 37° C. 5% CO2.
(§8) Upon completion of the incubation, the cell culture solution added with the above reagent was recovered, and simultaneously, according to colorimetry by which absorbance at wavelength of 450 nm based on reduction of tetrazolium salt (value calibrated with absorbance at wavelength of 650 nm: A450-A650), the cell survival rate (%) was evaluated.

The subject of assay [2] is pancreatic cancer cell line (MIA PaCa-2). The assay is described as above. The assay is classed as cell-based, human. How it is done: as §1, §2, §3, §4, §5, §6, §7, §8
Assay [3] concerns mammary cancer cell line (MCF-7). The assay is described as above. In kind it is cell-based, human. How it is done: as §1, §2, §3, §4, §5, §6, §7, §8
Assay [4] relates to prostate cancer cell line (DU-145). Described as above. In kind it is cell-based, human. How it is done:
as §1, §2, §3, §4, §5, §6, §7, §8

Assay [5] has as its system prostate cancer cell line (PC-3). Described as above. The assay is classed as cell-based, human. How it is done: as §1, §2, §3, §4, §5, §6, §7, §8
Assay [6] has as its system normal human mammary epithelial cells. The experiment in a line: Cell survival rate test (WST-8, Cell Counting Kit-8) on normal cells for comparison. In kind it is cell-based. How it is done: as §1, §2, §3, §4, §5, §6, §7, §8
Background: Formazan colour is commonly taken as a measure of viable cells.

Molecules are shown by their SMILES. Peptide text beside a SMILES is read from it.

With `CC[C@H](C)[C@H](NC(=O)[C@H](C)NC(=O)[C@H](CO)NC(=O)[C@@H](NC(=O)[C@H](CC(C)C)NC(=O)[C@H](Cc1ccccc1)NC(=O)[C@H](CO)NC(=O)[C@H](Cc1c[nH]c2ccccc12)NC(=O)[C@H](CCC(N)=O)NC(=O)[C@@H](NC(=O)[C@@H]1CCCN1)C(C)C)C(C)C)C(=O)N[C@@H](C)C(=O)NCC(=O)N[C@@H](CO)C(=O)N[C@H](C(=O)N[C@@H](C)C(=O)N[C@@H](CO)C(=O)N[C@@H](Cc1ccc(O)cc1)C(=O)N[C@@H](CCCNC(=N)N)C(=O)N[C@H](C(=O)N[C@@H](Cc1c[nH]c2ccccc12)C(=O)N[C@@H](CCCNC(=N)N)C(=O)N[C@@H](CCCNC(=N)N)C(=O)N[C@@H](CCC(N)=O)C(=O)N[C@@H](C)C(=O)N[C@@H](CCCNC(=N)N)C(=O)N[C@@H](Cc1ccccc1)C(=O)N[C@@H](CCCCN)C(N)=O)C(C)C)C(C)C` [Sample 11] (H-PVQWSFLVSAIAGSVASYRVWRRQARFK-NH2; N-terminus assumed), the “Cell survival rate (%)” value is reported as 101% in assay [1] (peptide 3.13 μM) and 77% in assay [1] (peptide 50 μM).

For `CC[C@H](C)[C@H](NC(=O)CNC(=O)[C@@H](NC(=O)[C@@H](NC(=O)CNC(=O)[C@H](CC(C)C)NC(=O)[C@@H](NC(=O)[C@H](Cc1ccccc1)NC(=O)[C@H](CO)NC(=O)[C@H](C)NC(=O)[C@@H](NC(=O)CNC(=O)[C@H](CCCCN)NC(=O)[C@H](CCSC)NC(=O)[C@H](Cc1ccccc1)NC(=O)[C@H](C)NC(=O)[C@@H](N)Cc1ccc(O)cc1)[C@@H](C)O)[C@@H](C)CC)[C@@H](C)O)C(C)C)C(=O)N[C@@H](Cc1ccccc1)C(=O)N[C@@H](Cc1ccccc1)C(=O)NCC(=O)N[C@@H](Cc1c[nH]c2ccccc12)C(=O)N[C@@H](CCCNC(=N)N)C(=O)N[C@@H](CCCNC(=N)N)C(=O)N[C@@H](CCC(N)=O)C(=O)N[C@@H](C)C(=O)N[C@@H](CCCNC(=N)N)C(=O)N[C@@H](Cc1ccccc1)C(=O)N[C@@H](CCCCN)C(N)=O` [Sample 8] (H-YAFMKGTASFILGTVGIFFGWRRQARFK-NH2; N-terminus assumed), the “Cell survival rate (%)” value came to 99% in assay [1] (peptide 3.13 μM) and 76% in assay [1] (peptide 50 μM).

For the compound `CC[C@H](C)[C@H](NC(=O)[C@H](CO)NC(=O)[C@@H](NC(=O)[C@H](CC(C)C)NC(=O)[C@H](CC(C)C)NC(=O)[C@H](CC(N)=O)NC(=O)[C@H](Cc1c[nH]c2ccccc12)NC(=O)[C@H](CCC(N)=O)NC(=O)[C@H](CC(C)C)NC(=O)[C@@H]1CCCN1C(=O)[C@@H](N)Cc1ccc(O)cc1)[C@@H](C)CC)C(=O)N[C@@H](CC(C)C)C(=O)N[C@@H](C)C(=O)N[C@@H](CO)C(=O)N[C@@H](CO)C(=O)N[C@H](C(=O)NCC(=O)N[C@@H](CO)C(=O)N[C@@H](Cc1ccc(O)cc1)C(=O)N[C@@H](C)C(=O)N[C@H](C(=O)N[C@@H](CCCCN)C(=O)N[C@@H](CCCCN)C(=O)N[C@@H](CCCNC(=N)N)C(=O)N[C@H](C(=O)N[C@@H](CC(C)C)C(=O)N[C@@H](CCCNC(=N)N)C(=O)N[C@@H](CCCCN)C(=O)N[C@@H](CC(N)=O)C(=O)N[C@@H](CC(=O)O)C(=O)N[C@@H](CCCNC(=N)N)C(=O)N[C@@H](CCCCN)C(=O)N[C@@H](CCCCN)C(=O)N[C@@H](CCCNC(=N)N)C(N)=O)[C@@H](C)O)C(C)C)C(C)C` [Sample 3] (H-YPLQWNLLISILASSVGSYAVKKRTLRKNDRKKR-NH2; N-terminus assumed), the “Cell survival rate (%)” value is 77.9% in assay [1] (peptide 12.5 μM); 65.7% in assay [1] (peptide 25 μM); 54.5% in assay [1] (peptide 50 μM); 45% in assay [1] (peptide 100 μM); 101.4% in assay [2] (peptide 12.5 μM); 93.8% in assay [2] (peptide 25 μM). Besides, the “Cell survival rate (%)” value in assay [2] (peptide 50 μM) stood at 88.5%; in assay [2] (peptide 100 μM), 45.6%; in assay [3] (peptide 12.5 μM) it was 79.3%; in assay [3] (peptide 25 μM), 71.8%; in assay [3] (peptide 50 μM), 50%; in assay [3] (peptide 100 μM), 32.8%. For the same compound, the “Cell survival rate (%)” value in assay [4] (peptide 12.5 μM) is 78.6%; in assay [4] (peptide 25 μM) it was 73.7%; in assay [4] (peptide 50 μM), 49.3%; in assay [4] (peptide 100 μM), 37.5%; in assay [5] (peptide 12.5 μM) it was 64.6%; in assay [5] (peptide 25 μM), 66.5%. Further, the “Cell survival rate (%)” value in assay [5] (peptide 50 μM) was 62.5%; in assay [5] (peptide 100 μM), 47%; in assay [6] (peptide 12.5 μM), 83.6%; in assay [6] (peptide 25 μM), 71.6%; in assay [6] (peptide 50 μM), 81.5%; in assay [6] (peptide 100 μM) it was 74.8%.

In the case of `CC[C@H](C)[C@H](NC(=O)CNC(=O)[C@H](CC(C)C)NC(=O)[C@H](CC(C)C)NC(=O)[C@H](Cc1ccccc1)NC(=O)[C@@H](NC(=O)CNC(=O)[C@@H](NC(=O)CNC(=O)[C@H](CCCCN)NC(=O)[C@@H](N)CCSC)[C@@H](C)O)[C@@H](C)O)C(=O)N[C@@H](C)C(=O)NCC(=O)N[C@@H](CC(C)C)C(=O)N[C@@H](Cc1ccccc1)C(=O)N[C@H](C(=O)N[C@@H](CC(C)C)C(=O)N[C@@H](CCC(N)=O)C(=O)N[C@@H](CCCCN)C(=O)N[C@H](C(=O)N[C@H](C(=O)N[C@@H](CCC(N)=O)C(=O)N[C@@H](CCCNC(=N)N)C(=O)N[C@@H](CCCNC(=N)N)C(=O)N[C@@H](CCCNC(=N)N)C(=O)N[C@@H](CCCNC(=N)N)C(=O)N[C@@H](CCCNC(=N)N)C(=O)N[C@@H](CCCNC(=N)N)C(=O)N[C@@H](CCCNC(=N)N)C(=O)N[C@@H](CCCNC(=N)N)C(=O)N[C@@H](CCCNC(=N)N)C(N)=O)[C@@H](C)CC)C(C)C)[C@@H](C)O` [Sample 2] (H-MKGTGTFLLGIAGLFTLQKVIQRRRRRRRRR-NH2; N-terminus assumed), the “Cell survival rate (%)” value in assay [1] (peptide 12.5 μM) is given as 80%; in assay [1] (peptide 25 μM), 69.7%; in assay [1] (peptide 50 μM), 52.6%; in assay [1] (peptide 100 μM), 44.3%; in assay [2] (peptide 12.5 μM) it was 94.4%; in assay [2] (peptide 25 μM), 91.3%. The “Cell survival rate (%)” value in assay [2] (peptide 50 μM) is 36.7%; in assay [2] (peptide 100 μM), 7%; in assay [3] (peptide 12.5 μM), 75.7%; in assay [3] (peptide 25 μM), 49.1%; in assay [3] (peptide 50 μM), 20.2%; in assay [3] (peptide 100 μM), 17.6%. Moreover, the “Cell survival rate (%)” value in assay [4] (peptide 12.5 μM) is 86.2%; in assay [4] (peptide 25 μM), 75.2%; in assay [4] (peptide 50 μM), 41.2%; in assay [4] (peptide 100 μM), 16.4%; in assay [5] (peptide 12.5 μM), 101.1%; in assay [5] (peptide 25 μM), 80.9%. For the same compound, the “Cell survival rate (%)” value was found to be 45.2% in assay [5] (peptide 50 μM); 42.6% in assay [5] (peptide 100 μM); 88.3% in assay [6] (peptide 12.5 μM); 82.1% in assay [6] (peptide 25 μM); 56.1% in assay [6] (peptide 50 μM); 42.7% in assay [6] (peptide 100 μM).

`CC[C@H](C)[C@H](NC(=O)[C@H](CO)NC(=O)[C@@H](NC(=O)[C@H](Cc1ccccc1)NC(=O)[C@H](CC(C)C)NC(=O)[C@H](CC(N)=O)NC(=O)[C@H](Cc1c[nH]c2ccccc12)NC(=O)[C@H](CCC(N)=O)NC(=O)[C@@H](N)CC(C)C)C(C)C)C(=O)N[C@H](C(=O)N[C@@H](CO)C(=O)N[C@@H](CO)C(=O)N[C@@H](CO)C(=O)N[C@H](C(=O)N[C@@H](Cc1ccccc1)C(=O)N[C@@H](CO)C(=O)N[C@@H](Cc1ccc(O)cc1)C(=O)N[C@@H](CO)C(=O)N[C@H](C(=O)N[C@@H](Cc1c[nH]c2ccccc12)C(=O)N[C@@H](CCCNC(=N)N)C(=O)N[C@@H](CCCNC(=N)N)C(=O)N[C@@H](CCC(N)=O)C(=O)N[C@@H](C)C(=O)N[C@@H](CCCNC(=N)N)C(=O)N[C@@H](Cc1ccccc1)C(=O)N[C@@H](CCCCN)C(N)=O)C(C)C)C(C)C)C(C)C` [Sample 9] (H-LQWNLFVSIVSSSVFSYSVWRRQARFK-NH2; N-terminus assumed): the “Cell survival rate (%)” value in assay [1] (peptide 3.13 μM) is 99%; in assay [1] (peptide 50 μM), 73%.
